Key:
Assay in all cases: relative viability (nuclei count vs DMSO), 5 days (fraction); higher = more cells survive
Ricolinostat + AZD7762 = compound: O=C(CCCCCCNC(=O)c1cnc(N(c2ccccc2)c2ccccc2)nc1)NO [Ricolinostat] + NC(=O)Nc1cc(-c2cccc(F)c2)sc1C(=O)N[C@H]1CCCNC1 [AZD7762] (partner 0.2 µM)
How it was run: (§1)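 Lung cancer cell lines were pin-tool dosed in 1536-well plates on the day after seeding, with either a lone drug or a fixed anchor-drug dose plus five library-drug doses (not always all listed) in √10 steps. Nuclei were counted on 4× images after 5 days. Relative viability is the ratio of treated-well to vehicle-well nuclei counts, with each value a median of duplicate plates.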

[1] = compound: C1=CC=C(C(=C1)C2=CC=C(C=C2)C3=CSC4=C3C(=C(C(=O)N4)C#N)O)O + Nc1nc2[nH]cc(CCc3ccc(C(=O)N[C@@H](CCC(=O)O)C(=O)O)cc3)c2c(=O)[nH]1 [Pemetrexed] (partner 0.2 µM)
How it was run: as §1

TGX 221 + Luminespib = compound: CC1=CN2C(=O)C=C(N=C2C(=C1)C(C)NC3=CC=CC=C3)N4CCOCC4 [TGX 221] + CCNC(=O)c1noc(-c2cc(C(C)C)c(O)cc2O)c1-c1ccc(CN2CCOCC2)cc1 [Luminespib] (partner 0.01 µM)
How it was run: as §1

TGX 221 + Trametinib = compound: CC1=CN2C(=O)C=C(N=C2C(=C1)C(C)NC3=CC=CC=C3)N4CCOCC4 [TGX 221] + CC(=O)Nc1cccc(-n2c(=O)n(C3CC3)c(=O)c3c(Nc4ccc(I)cc4F)n(C)c(=O)c(C)c32)c1 [Trametinib] (partner 0.02 µM)
How it was run: as §1

With NCI-H1792 the relative viability (Ricolinostat + AZD7762; first compound 0.253 µM) was 0.716, the relative viability (Ricolinostat + AZD7762; first compound 0.8 µM) was 0.581 and the relative viability (Ricolinostat + AZD7762; first compound 2.53 µM) was 0.375. The relative viability ([1]; first compound 0.253 µM) was 0.835, the relative viability ([1]; first compound 0.8 µM) was 0.714 and the relative viability ([1]; first compound 2.53 µM) was 0.649. The relative viability ([1]; first compound 8 µM) was 0.477, the relative viability (TGX 221 + Luminespib; first compound 0.08 µM) was 0.52 and the relative viability (TGX 221 + Luminespib; first compound 0.253 µM) was 0.498. For the same cell line, the relative viability (TGX 221 + Luminespib; first compound 0.8 µM) was 0.418, the relative viability (TGX 221 + Luminespib; first compound 2.53 µM) was 0.375 and the relative viability (TGX 221 + Luminespib; first compound 8 µM) was 0.293. For the same cell line, the relative viability (TGX 221 + Trametinib; first compound 0.08 µM) was 0.436, the relative viability (TGX 221 + Trametinib; first compound 0.253 µM) was 0.414 and the relative viability (TGX 221 + Trametinib; first compound 0.8 µM) was 0.366. The relative viability (TGX 221 + Trametinib; first compound 2.53 µM) was 0.277 and the relative viability (TGX 221 + Trametinib; first compound 8 µM) was 0.313.

From the supplement of paper PMC10307832
